The compounds below were run against T1, Human Type I Steroid 5α-Reductase (Homo sapiens, UniProt P18405) (assay: Human 5α-Reductase Homogenate Assay (Type I, human scalp): conversion of [3H]-testosterone to 5α-reduced metabolites). Settings: 0.3 μM test compound, compared to control reaction mixtures; 50 nM [3H]-testosterone, pH 7.5, 25°, 180 min.
T1 construct: Scalp punch biopsies from graft recipient sites were obtained; from tissue; host or cells: human scalp punch biopsies (hair transplant graft recipient sites), homogenate, resuspended 100,000×g pellet
T1 sequence (P18405 1-259): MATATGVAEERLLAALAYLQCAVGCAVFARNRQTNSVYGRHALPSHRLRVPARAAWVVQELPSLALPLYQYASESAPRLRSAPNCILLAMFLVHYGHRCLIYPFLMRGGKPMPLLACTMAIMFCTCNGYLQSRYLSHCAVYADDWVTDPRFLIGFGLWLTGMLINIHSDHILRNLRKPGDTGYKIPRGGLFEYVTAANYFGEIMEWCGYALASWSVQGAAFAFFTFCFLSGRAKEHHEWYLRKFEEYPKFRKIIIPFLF
Type: biochemical
Description: Methodology of Human Type I Steroid 5α-Reductase Assays
Approximately 60-75 punches from one surgical procedure were used to generate an enzyme preparation. The subcutaneous tissue was cut away and discarded. The skin was frozen with liquid nitrogen and pulverized to powder. […] The homogenization procedure consisted of four 15 second pulses. Connective tissue was cleared from the probe with forceps between pulses. […] The pellet was resuspended by homogenization with a Dounce homogenizer using the same buffer solution. An aliquot was taken for protein determination by the Lowry method, Lowry, et al., Protein Measurement with the Folin Phenol Reagent, J. Biol. Chem., 193, 265-75 (1951). Aliquots of the enzyme preparation were stored at -80° until use.
The reaction was initiated by the addition of 0.5 mg of Type I 5α-reductase. The reaction mixture was incubated at 25° for 180 min, and terminated by the addition of 1 mL ice-cold stopping solution. […] The samples were prepared for high performance liquid chromatography by solid phase extraction. […] The reaction mixtures were then applied to the columns. The columns were subsequently washed with 5 mL of acetone:water (1:4), followed by 0.3 mL of methanol. The samples were then eluted with 3 mL of methanol and collected in 20 mL scintillation vials. […] The column temperature was maintained at 35° and the flow rate was 1.5 mL/min.
With `CN1C(=O)CC[C@]2(C)c3ccc(Sc4nc5c(ccc6ccccc65)s4)cc3CC[C@@H]12` [Example 163, (+)-(4aR)-(10bR)-4-methyl-8-(2-naphtho<1,2-d>-thiazolylthio)-10b-methyl-1,2,3,4,4a,5,6,10b-octahydrobenzo[f]-quinolin-3-one] the “percent inhibition of Type I 5AR” value was 80%.
In the case of `C[C@]12CCC(=O)N[C@@H]1CCc1cc(-c3cnc4ccccc4c3)ccc12` [Example 196, (+)-(4aR)-(10bR)-8-(3-quinolinyl)-10b-methyl-1,2,3,4,4a,5,6,10b-octahydrobenzo[f]quinolin-3-one], the “percent inhibition of Type I 5AR” value is reported as 11%.
`CN1C(=O)CC[C@]2(C)c3ccc(-c4ccc(-c5ccc(NC(=O)C(C)(C)C)s5)cc4)cc3CC[C@@H]12` [Example 222, (+)-(4aR)-(10bR)-4-methyl-8-(4-[(2-t-butylcarbonylamino]-5-thienyl]phenyl)-10b-methyl-1,2,3,4,4a,5,6,10b-octahydrobenzo[f]quinolin-3-one] was tested, and the “percent inhibition of Type I 5AR” value was 86%.
In the case of `CN1C(=O)CC[C@]2(C)c3ccc(C=Cc4ccccc4)cc3CC[C@@H]12` [Example 285, (4aR)-(10bR)-4,10b-dimethyl-8-(2-phenylethenyl)-1,2,3,4,4a,5,6,10b-octahydrobenzo[f]quinolin-3-one], the “percent inhibition of Type I 5AR” value is reported as 93%.
“(+)-(4aR)-(10bR)-4-methyl-8-benzyloxycarbonyl-10b-methyl-1,2,3,4,4a,5,6,10b-octahydrobenzo[f]quinolin-3-one [Example 144]” was tested, and the “percent inhibition of Type I 5AR” value was 90%.

— patent US5629007A, “Method of preventing prostatic cancer development” (priority 1995, dated 1997)
